Measurements published in patent US10399981B2, “Crystal form A of 7-(cyclopropylmethyl)-1-(((cis )-4-hydroxy-4-methylcyclohexyl)methyl)-3-methyl-1H-purine-2,6-(3H,7H)-dione for treating liver diseases” (GUANGDONG RAYNOVENT BIOTECH CO., LTD., priority 2015, dated 2019).
Converted amounts (≈) assume the structure as drawn. Values belong to the compound of their own block, whether it stands above or below them.

Key:
[1] = Evaluation on pharmacokinetics of compound in SD rats; assay type: in vivo; settings: male, Sprague-Dawley, rat, plasma; for clearance / AUC / half-life: single intravenous injection and oral administration; for clearance: read-out: Clearance rate; for AUC: read-out: Concentration integral AUC; for half-life: read-out: Half life T1/2 (converted)
Protocol: Experimental objective: To test the pharmacokinetics of a compound in SD rats
Experimental materials: Sprague Dawley rats (male, 200-300 g, 7-9 weeks old, Shanghai SLAC)
Pharmacokinetic characteristics of rodents after intravenous injection and oral administration of the compound were tested using a standard scheme. In the experiment, a candidate compound was prepared into a clear solution, which was administrated to rats by single intravenous injection and oral administration. The solvent for intravenous injection and oral administration is water solution or normal saline solution of hydroxypropyl 3 cyclodextrin at a certain proportion. A whole blood sample was collected within 24 hours, and 3000 g of the sample was centrifuged for 15 minutes. The supernatant was separated to obtain blood plasma samples, to which 4 times volume of an acetonitrile solution containing an internal standard substance was added to precipitate protein. After centrifuging, the supernatant was collected, equivalent volume of water was added, the resulting solution was recentrifuged, and the supernatant was collected for sample injection. The blood concentration was quantitatively analyzed by LC-MS/MS, and the pharmacokinetic parameters were calculated, such as peak concentration, time to peak, clearance rate, half life, area under the curve and bioavailability.

LPS-induced TNF-α = experiment: In vitro influence of compound on LPS-induced TNF-α in blood (ELISA); assay type: cell-based, Sprague Dawley rats; settings: rat blood, compound 100 uM, 5 h
Protocol: Experimental objective: to detect the influence of compound on LPS-induced TNF-α in blood of […] in vitro, and to evaluate inhibiting effects of the compound on LPS-induced TNF-α in blood of […].
Sprague Dawley rats (male, 210-260 g, 8-10 weeks old, Shanghai SLAC)
Rat TNF-alpha Quantikine ELISA Kit (R&D, #SRTA00)
The solution of compound to-be-detected at a concentration of 1 mM was prepared, and 40 μL (final concentration of the compound: 100 uM) was respectively added to a 48-well cell culture plate. After rats were anesthetized with isoflurane, blood samples were collected from their hearts (heparin anticoagulation). The blood was added to the to-be-detected compound present in the 48-well plate with 320 μL/well. The 48-well plate was incubated in a cell incubator for 30 min. Then 40 μL of LPS solution (100 ug/ml) was added, and fully mixed. The plate was further incubated in the incubator. 5 h later, the 48-well plate was taken out. The blood samples were transferred to 1.5 ml centrifuge tubes, and centrifuged in a centrifuge (4,500 rpm, 4° C., 5 minutes). The supernatant was separated to obtain blood plasma, which was subpackaged, quickly frozen, and kept in a refrigerator at −80° C. On the next day, the TNF-α levels in blood plasma samples were detected using an R&D ELISA kit.

[2] = molecular target: T1, recombinant full-length human PDE2A protein (Homo sapiens, UniProt O00408); experiment: In vitro evaluation on inhibition activities of PDE2 phosphodiesterase (fluorescence polarization, Transcreener AMP2/GMP2); assay type: biochemical; settings: substrate 1 μM cGMP
T1 construct: A recombinant full-length human PDE2A protein; GST (N); made in house; host or cells: Sf9 insect cells (baculovirus)
Protocol: Experimental objective: the concentrations of AMP/GMP generated in the reaction system was detected by detecting a substituted AlexaFluor 633 fluorochrome on AMP/GMP antibodies through fluorescence polarization analysis, and IC50 of PDE2 phosphodiesterase against compound to be detected was calculated.
Buffer solution for determination: 10 mM Tris-HCl, pH 7.5, 5 mM MgCl2, 0.01% Brij 35, 1 mM DTT, and 1% DMSO.
Enzyme: A recombinant full-length human PDE2A protein was expressed by baculovirus in Sf9 insect cells using an N-terminal GST tag
Transcreener® AMP^2/GMP^2 antibody, AMP2/GMP2 AlexaFluor 633 fluorochrome
An enzyme solution was prepared from a freshly prepared buffer solution, and then added to a reaction cavity, a DMSO solution of compound to-be-detected was added through an Echo550 contactless nanoliter pipetting system, and then the resulting solution was preincubated for 10 min at room temperature. A substrate (1 μM cGMP) was added to initiate reaction, which was kept at room temperature for 1 h. […] Fluorescence polarization was detected using Ex/Em 620/688.
Fluorescence polarization intensity was converted to nM concentration through AMP/GMP standard curves, then relative enzymatic activity inhibition was calculated compared with DMSO blank control, and IC50 and curve thereof was calculated using Prism software package (GraphPad Software, San Diego Calif., USA).

[3] = Solubility of crystal form A in different solvents; assay type: physicochemical; settings: thermodynamic from solid, room temperature
Protocol: About 2 mg of crystal form A was weighed put in a 1.5 mL liquid phase vial, to which the following solvents were respectively added by pipettes by stages to dissolve the crystal form A while manually vibrating.

[4] = Stability test of crystal form A solid (accelerated, 40° C./75% humidity, open); assay type: physicochemical
Protocol: A crystal form A was put in an open container at a constant temperature and humidity for accelerated test respectively at 40° C./75% humidity (open). Samples were collected in 1st, 2nd and 3rd months and tested, and the test results were compared with the initial test results on 0th day.

[5] = 40° C./75% humidity (open), 1 month
[6] = 40° C./75% humidity (open), 2 months
[7] = 40° C./75% humidity (open), 3 months

T1 sequence (O00408 whole entry): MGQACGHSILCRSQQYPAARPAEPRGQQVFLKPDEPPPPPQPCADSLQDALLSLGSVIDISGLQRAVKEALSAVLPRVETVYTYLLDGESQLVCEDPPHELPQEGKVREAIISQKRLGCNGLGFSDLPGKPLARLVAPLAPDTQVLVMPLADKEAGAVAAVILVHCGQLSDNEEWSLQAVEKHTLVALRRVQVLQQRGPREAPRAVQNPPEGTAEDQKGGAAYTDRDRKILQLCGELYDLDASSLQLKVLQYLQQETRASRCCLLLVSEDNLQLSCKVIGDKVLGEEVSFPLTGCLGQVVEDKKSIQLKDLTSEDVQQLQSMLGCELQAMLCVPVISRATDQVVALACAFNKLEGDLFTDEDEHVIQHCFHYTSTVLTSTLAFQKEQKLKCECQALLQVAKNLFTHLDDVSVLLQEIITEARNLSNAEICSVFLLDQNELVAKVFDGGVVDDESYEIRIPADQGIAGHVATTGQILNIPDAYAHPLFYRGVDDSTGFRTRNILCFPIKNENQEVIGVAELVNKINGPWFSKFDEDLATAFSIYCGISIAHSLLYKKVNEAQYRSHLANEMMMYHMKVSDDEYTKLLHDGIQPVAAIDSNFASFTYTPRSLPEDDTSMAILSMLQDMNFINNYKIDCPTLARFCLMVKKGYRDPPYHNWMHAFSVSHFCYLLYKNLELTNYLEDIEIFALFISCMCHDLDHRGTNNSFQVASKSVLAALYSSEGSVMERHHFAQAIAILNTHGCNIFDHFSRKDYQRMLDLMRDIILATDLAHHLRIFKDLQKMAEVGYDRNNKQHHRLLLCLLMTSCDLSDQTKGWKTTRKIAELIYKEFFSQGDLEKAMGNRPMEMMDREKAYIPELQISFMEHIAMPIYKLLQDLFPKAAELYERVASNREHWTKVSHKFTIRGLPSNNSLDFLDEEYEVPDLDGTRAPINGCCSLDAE

bioavailability ([1]; oral administration, read-out: Bioavailability F): 47.9%
clearance [1]: 54.4 mL/min/kg
AUC [1]: 4.39 µM·h
half-life [1]: 47.6 min
IC50 [2]: 1 to 10 µM
SMILES: Cn1c(=O)n(C[C@H]2CC[C@@](C)(O)CC2)c(=O)c2c1ncn2CC1CC1 [Compound (I), 7-(cyclopropylmethyl)-1-(((cis)-4-hydroxy-4-methylcyclohexyl)methyl)-3-methyl-1H-purine-2,6-(3H, 7H)-dione]
TNF-α Inhibition Ratio (LPS-induced TNF-α): ++ (80% ≤ “++” < 100%)

solubility ([3]; aqueous with cosolvent or surfactant or cyclodextrin, Acetone-water (1:2)): ~1 mg/mL (≈ 2.89 mM)
solubility ([3]; aqueous with cosolvent or surfactant or cyclodextrin, Acetonitrile-water (1:1)): ~22.2 mg/mL (≈ 64.1 mM)
solubility ([3]; aqueous with cosolvent or surfactant or cyclodextrin, Ethanol-water (1:1)): ~16.3 mg/mL (≈ 47.1 mM)
solubility ([3]; aqueous with cosolvent or surfactant or cyclodextrin, Ethanol-water (3:1)): ~24.5 mg/mL (≈ 70.7 mM)
solubility ([3]; aqueous with cosolvent or surfactant or cyclodextrin, Isopropanol-water (1:1)): ~17.3 mg/mL (≈ 49.9 mM)
solubility ([3]; aqueous with cosolvent or surfactant or cyclodextrin, Methanol-water (1:1)): ~7.8 mg/mL (≈ 22.5 mM)
solubility ([3]; aqueous with cosolvent or surfactant or cyclodextrin, Methanol-water (3:1)): ~19 mg/mL (≈ 54.8 mM)
solubility ([3]; organic solvent or mixture, 2-methyltetrahydrofuran): ~24.2 mg/mL (≈ 69.9 mM)
solubility ([3]; organic solvent or mixture, Acetone): ~17.2 mg/mL (≈ 49.6 mM)
solubility ([3]; organic solvent or mixture, Acetonitrile): ~13 mg/mL (≈ 37.5 mM)
solubility ([3]; organic solvent or mixture, Butanone): ~37.2 mg/mL (≈ 107 mM)
solubility ([3]; organic solvent or mixture, Cyclohexane): < 1 mg/mL
solubility ([3]; organic solvent or mixture, Dioxane): > 57 mg/mL
solubility ([3]; organic solvent or mixture, Ethanol): ~11.2 mg/mL (≈ 32.3 mM)
solubility ([3]; organic solvent or mixture, Ethyl acetate): ~15.2 mg/mL (≈ 43.9 mM)
solubility ([3]; organic solvent or mixture, Isopropanol): ~10.1 mg/mL (≈ 29.2 mM)
solubility ([3]; organic solvent or mixture, Isopropyl acetate): ~12 mg/mL (≈ 34.6 mM)
solubility ([3]; organic solvent or mixture, Methanol): ~28.7 mg/mL (≈ 82.8 mM)
solubility ([3]; organic solvent or mixture, Methyl isobutyl ketone): ~10.9 mg/mL (≈ 31.5 mM)
solubility ([3]; organic solvent or mixture, Methyl tertiary butyl ether): ~2.6 mg/mL (≈ 7.51 mM)
solubility ([3]; organic solvent or mixture, Methylbenzene): < 1 mg/mL
solubility ([3]; organic solvent or mixture, Tetrahydrofuran): > 67 mg/mL
solubility ([3]; organic solvent or mixture, n-butanol): ~20.5 mg/mL (≈ 59.2 mM)
solubility ([3]; organic solvent or mixture, n-heptane): < 1 mg/mL
solubility ([3]; Water): < 1 mg/mL
Appearance [4, 5]: White powder
Content [4, 5]: 101.4%
Total Impurities [4, 5]: 0.31%
Appearance [4, 6]: White powder
Content [4, 6]: 98.8%
Total Impurities [4, 6]: 0.34%
Appearance [4, 7]: White powder
Content [4, 7]: 101.8%
Total Impurities [4, 7]: 0.32%
Appearance ([4]; Initial, 0 month): White powder
Content ([4]; Initial, 0 month): 101.6%
Total Impurities ([4]; Initial, 0 month): 0.33%
SMILES: Cn1c(=O)n(C[C@H]2CC[C@@](C)(O)CC2)c(=O)c2c1ncn2CC1CC1 [Crystal Form A, 7-(cyclopropylmethyl)-1-(((cis)-4-hydroxy-4-methylcyclohexyl)methyl)-3-methyl-1H-purine-2,6-(3H, 7H)-dione]

SMILES: CC(=O)CCCCn1c(=O)c2c(ncn2C)n(C)c1=O [Pentoxifylline, reference compound]
clearance [1]: 74.1 mL/min/kg
AUC [1]: 6.62 µM·h
half-life [1]: 11.5 min
